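In this assay, cells in 96-well plates receive the compound at five concentrations for 48 hours. Endpoints are linearly interpolated between the surrounding concentrations. Abbreviation: GI50, concentration required for 50% inhibition of growth. The concentration for full growth arrest is given as TGI.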
Key:
Experiment in all cases: NCI-60 cell line screen, 48 h
[1] = system: MDA-MB-468 breast
[2] = system: 786-0 renal
[3] = system: A498 renal
[4] = system: A549 NSCLC
[5] = system: ACHN renal
[6] = system: BT-549 breast
[7] = system: CAKI-1 renal
[8] = system: CCRF-CEM leukemia
[9] = system: COLO 205 colon
[10] = system: DU-145 prostate
[11] = system: EKVX NSCLC
[12] = system: HCC-2998 colon
[13] = system: HCT-116 colon
[14] = system: HCT-15 colon
[15] = system: HL-60(TB) leukemia
[16] = system: HOP-62 NSCLC
[17] = system: HOP-92 NSCLC
[18] = system: HS 578T breast
[19] = system: HT29 colon
[20] = system: IGROV1 ovarian
[21] = system: K-562 leukemia
[22] = system: KM12 colon
[23] = system: LOX IMVI melanoma
[24] = system: M14 melanoma
[25] = system: MALME-3M melanoma
[26] = system: MCF7 breast
[27] = system: MDA-MB-231 breast
[28] = system: MDA-MB-435
[29] = system: MOLT-4 leukemia
[30] = system: NCI-H226 lung
[31] = system: NCI-H23 lung
[32] = system: NCI-H460 lung
[33] = system: NCI-H522 lung
[34] = system: OVCAR-3 ovarian
[35] = system: OVCAR-4 ovarian
[36] = system: OVCAR-5 ovarian
[37] = system: OVCAR-8 ovarian
[38] = system: PC-3 prostate
[39] = system: RPMI-8226 leukemia
[40] = system: RXF 393 renal
[41] = system: SF-268 CNS
[42] = system: SF-295 CNS
[43] = system: SF-539 CNS
[44] = system: SK-MEL-2 melanoma
[45] = system: SK-MEL-28 melanoma
[46] = system: SK-MEL-5 melanoma
[47] = system: SK-OV-3 ovarian
[48] = system: SN12C renal
[49] = system: SNB-19 CNS
[50] = system: SNB-75 CNS
[51] = system: SR leukemia
[52] = system: SW-620 colon
[53] = system: T-47D breast
[54] = system: TK-10 renal
[55] = system: U251 CNS
[56] = system: UACC-257 melanoma
[57] = system: UACC-62 melanoma
[58] = system: UO-31 renal

Structure (SMILES): CCCCCCCC(=O)SCC/C=C/[C@@H]1CC(=O)NCc2cc(ccn2)C2=N[C@@](C)(CS2)C(=O)N[C@@H](C(C)C)C(=O)O1
- GI50 [1]: 0.055 µM
- TGI [1]: > 33.3 µM

Structure (SMILES): COc1cc(C2C(C(=O)OCc3ccccc3)=C(C)Nc3nc4ccccc4n32)cc(OC)c1OC (stereo not drawn)
- GI50 [2]: 1.8 µM
- TGI [2]: 3.56 µM
- GI50 [3]: 1.88 µM
- TGI [3]: 4.37 µM
- GI50 [4]: 3.28 µM
- TGI [4]: 11.4 µM
- GI50 [5]: 2.97 µM
- TGI [5]: 9.01 µM
- GI50 [6]: 4.09 µM
- TGI [6]: 18.1 µM
- GI50 [7]: 2.45 µM
- TGI [7]: 11.4 µM
- GI50 [8]: 7.01 µM
- TGI [8]: > 100 µM
- GI50 [9]: 12.5 µM
- TGI [9]: > 100 µM
- GI50 [10]: 7.06 µM
- TGI [10]: 55.8 µM
- GI50 [11]: 10.8 µM
- TGI [11]: 56.2 µM
- GI50 [12]: 14.4 µM
- TGI [12]: > 100 µM
- GI50 [13]: 3.25 µM
- TGI [13]: 10.5 µM
- GI50 [14]: 5.91 µM
- TGI [14]: > 100 µM
- GI50 [15]: 7.02 µM
- TGI [15]: 76.7 µM
- GI50 [16]: 2.75 µM
- TGI [16]: 9.15 µM
- GI50 [17]: 2.12 µM
- TGI [17]: 6.61 µM
- GI50 [18]: 2.25 µM
- TGI [18]: 7.65 µM
- GI50 [19]: 4.35 µM
- TGI [19]: 22.3 µM
- GI50 [20]: 4.42 µM
- TGI [20]: 30.5 µM
- GI50 [21]: 3.38 µM
- TGI [21]: > 100 µM
- GI50 [22]: 3.75 µM
- TGI [22]: 27.4 µM
- GI50 [23]: 3.43 µM
- TGI [23]: 12.9 µM
- GI50 [24]: 6.01 µM
- TGI [24]: 71 µM
- GI50 [25]: 1.74 µM
- TGI [25]: 5.71 µM
- GI50 [26]: 3.56 µM
- TGI [26]: 17.8 µM
- GI50 [27]: 1.97 µM
- TGI [27]: 4.68 µM
- GI50 [28]: 2.26 µM
- TGI [28]: 6.25 µM
- GI50 [1]: 2.11 µM
- TGI [1]: 5.83 µM
- GI50 [29]: 11.3 µM
- TGI [29]: > 100 µM
- GI50 [30]: 2.19 µM
- TGI [30]: 6.81 µM
- GI50 [31]: 7 µM
- TGI [31]: 29 µM
- GI50 [32]: 3.87 µM
- TGI [32]: 19.6 µM
- GI50 [33]: 2.64 µM
- TGI [33]: 10.3 µM
- GI50 [34]: 2.67 µM
- TGI [34]: 7.56 µM
- GI50 [35]: 2.41 µM
- TGI [35]: 7.87 µM
- GI50 [36]: 7.88 µM
- TGI [36]: 38.3 µM
- GI50 [37]: 3.73 µM
- TGI [37]: 14.4 µM
- GI50 [38]: 6.63 µM
- TGI [38]: > 100 µM
- GI50 [39]: 6.96 µM
- TGI [39]: > 100 µM
- GI50 [40]: 1.4 µM
- TGI [40]: 4.71 µM
- GI50 [41]: 3.22 µM
- TGI [41]: 19 µM
- GI50 [42]: 3.35 µM
- TGI [42]: 13.2 µM
- GI50 [43]: 1.98 µM
- TGI [43]: 4.37 µM
- GI50 [44]: 2.61 µM
- TGI [44]: 7.76 µM
- GI50 [45]: 5.46 µM
- TGI [45]: 59 µM
- GI50 [46]: 4.41 µM
- TGI [46]: 19.5 µM
- GI50 [47]: 2.46 µM
- TGI [47]: 5.86 µM
- GI50 [48]: 3.3 µM
- TGI [48]: 21.2 µM
- GI50 [49]: 3.65 µM
- TGI [49]: 15.8 µM
- GI50 [50]: 1 µM
- TGI [50]: 3.22 µM
- GI50 [51]: 3.93 µM
- TGI [51]: > 100 µM
- GI50 [52]: 6.23 µM
- TGI [52]: > 100 µM
- GI50 [53]: 3.15 µM
- TGI [53]: 14.5 µM
- GI50 [54]: 2.15 µM
- TGI [54]: 5.4 µM
- GI50 [55]: 3.25 µM
- TGI [55]: 11.3 µM
- GI50 [56]: 11.2 µM
- TGI [56]: 66.3 µM
- GI50 [57]: 2.15 µM
- TGI [57]: 8.07 µM
- GI50 [58]: 2.11 µM
- TGI [58]: 5.27 µM

Structure (SMILES): COc1ccc(/C=C(/C#N)n2nnc3cccc(F)c32)cc1
- GI50 [1]: 0.414 µM
- TGI [1]: 5.12 µM

Structure (SMILES): C/C(=C(/c1ccc(O)cc1)c1ccc(OCCN2CCCC2)cc1)c1ccc(Cl)cc1
- GI50 [1]: 1.88 µM
- TGI [1]: 4.11 µM

Structure (SMILES): COc1cc(/C=C/C(=O)c2cc(OC)c(OC)c(OC)c2)ccc1OCc1ccccc1
- GI50 [1]: 2.15 µM
- TGI [1]: 7.98 µM

Structure (SMILES): Fc1cc2[nH]ncc2c2c3c(c(-c4cn[nH]c4)nc12)CCCC3
- GI50 [1]: 0.857 µM
- TGI [1]: 2.58 µM

Structure (SMILES): CCN(CC)c1ccc(-c2cc(-c3cc(OC)c(OC)c(OC)c3)nc(N3CCOCC3)c2C#N)cc1
- GI50 [1]: 2.58 µM
- TGI [1]: > 100 µM

Structure (SMILES): OC(c1cc(-c2ccc(C(F)(F)F)cc2)nc(-c2ccc(C(F)(F)F)cc2)c1)C1CCCCN1 (stereo not drawn)
- GI50 [1]: 1.47 µM
- TGI [1]: 2.82 µM

Structure (SMILES): O=C1c2cc3c(cc2-c2c1c1ccc(F)cc1c(=O)n2CCCNCCO)OCO3
- GI50 [1]: 0.0228 µM
- TGI [1]: 0.0705 µM

Structure (SMILES): COc1ccc(-c2nnc(COc3ccc(NC(=O)Nc4cc(C(F)(F)F)cc(C(F)(F)F)c4)cc3F)o2)cc1
- GI50 [1]: 1.55 µM
- TGI [1]: 5.04 µM

Structure (SMILES): C=C1C(=O)O[C@H]2[C@H]1CC/C(COC(=O)c1c[nH]c3ccccc13)=C\CC[C@@]1(C)O[C@@H]21
- GI50 [1]: 0.19 µM
- TGI [1]: 0.448 µM

Structure (SMILES): CC(C)[C@H]1COC(=O)N1[C@@H]1C(=O)N([C@@H](CCC(=O)N2CCN(C3CCCC3)CC2)C(=O)N[C@@H]2CCCc3ccccc32)[C@@H]1/C=C/c1cccc(Br)c1
- GI50 [1]: 0.688 µM
- TGI [1]: 2.12 µM

Structure (SMILES): N#C/C(=N\Nc1ccc(F)cc1)C(=O)Nc1cc(-c2ccccc2)nn1-c1ccccc1
- GI50 [1]: 1.46 µM
- TGI [1]: 6.01 µM

Structure (SMILES): O=C(CCc1nnc2sc(-c3ccc(Cl)cc3Cl)nn12)c1nc2ncccc2[nH]1
- GI50 [1]: 2.09 µM
- TGI [1]: 4.41 µM

Structure (SMILES): CN1CCN(CCCn2c(=O)c3sc4ncccc4c3n3nnc(-c4ccccc4)c23)CC1
- GI50 [1]: 6.84 µM
- TGI [1]: 13.9 µM

Structure (SMILES): Nc1ncnc2c1nnn2C1OC(CO)C(O)C1O (stereo not drawn)
- GI50 [1]: 0.234 µM
- TGI [1]: 1.26 µM

Structure (SMILES): O=C(/C=C/c1ccc(Cl)cc1)c1ccc(Nc2ccnc3cc(Cl)ccc23)cc1
- GI50 [1]: 43.1 µM
- TGI [1]: > 100 µM

Structure (SMILES): COc1ccc(-c2nnc(COc3ccc(C(=O)/C=C/c4ccco4)cc3)o2)cc1
- GI50 [1]: 1.89 µM
- TGI [1]: 4.12 µM

Structure (SMILES): CO[C@H]1/C=C(/C)CCC[C@H](C)[C@H](O)[C@@H](C)C(=O)C(C)(C)[C@@H](O)CC(=O)O[C@@H]1/C(C)=C/c1csc(C)n1
- GI50 [1]: < 0.01 µM
- TGI [1]: 0.0463 µM

Structure (SMILES): CN(C(=O)c1ccc(C(F)(F)F)cc1)c1ccc(Oc2ccc3c(c2)cc(C(=O)N2CCN(Cc4ccc(OC(F)F)cc4)CC2)n3C)nc1
- GI50 [1]: < 0.01 µM
- TGI [1]: 28.6 µM

Structure (SMILES): Cc1cc(/C=C/c2ccc3cc(N(C)C)ccc3[n+]2C)c(C)n1-c1ccccc1
- GI50 [1]: 0.0486 µM
- TGI [1]: 0.23 µM

Structure (SMILES): COc1cccc(-c2nc(-c3ccc(NC(=O)C(C)C)cc3)[nH]c2-c2ccnc(Br)c2)c1
- GI50 [1]: 1.89 µM
- TGI [1]: 5.4 µM

Structure (SMILES): OCc1ccc(-c2ccc(-c3ccc(CO)s3)o2)s1
- TGI [1]: 0.023 µM

Structure (SMILES): COc1cc(/C=C/c2cc(O)c(C(C)=O)c(O)c2)cc2c1O[C@]1(C)CC[C@@H](O)C(C)(C)[C@H]1C2
- GI50 [1]: 4.75 µM
- TGI [1]: 31.2 µM

Structure (SMILES): Cc1cc(-c2ccc3nc(C4CCOCC4)n(CCOC(F)(F)F)c3c2)cn(C)c1=O
- GI50 [1]: 0.188 µM
- TGI [1]: 2.25 µM

Structure (SMILES): CCN1CCN(c2nc(C)cc(N(CCNc3ccnc4cc(Cl)ccc34)Cc3ccc4c(c3)OCO4)n2)CC1
- GI50 [1]: 1.55 µM
- TGI [1]: 3.34 µM

Structure (SMILES): CC[C@H](Nc1ncnc2nc[nH]c12)c1oc2ccccc2c(=O)c1-c1cccc(F)c1
- GI50 [1]: 9.08 µM
- TGI [1]: 34.4 µM

Structure (SMILES): O=c1c2sccc2n(CC2COc3ccccc3O2)c(=O)n1O (stereo not drawn)
- GI50 [1]: 4.61 µM
- TGI [1]: 57.4 µM

Structure (SMILES): Cn1cnc([N+](=O)[O-])c1S(=O)(=O)Oc1cccc2ccccc12
- GI50 [1]: 1.85 µM
- TGI [1]: 3.84 µM

Structure (SMILES): O=C(CSc1ccc(Cl)cc1)Nc1ccc(-c2nc3ccccc3s2)c(Cl)c1
- GI50 [1]: 4.52 µM
- TGI [1]: 48.5 µM

Structure (SMILES): C=C1NC(=O)C(C(C)CC)NC(=O)C2CSCC(NC(=O)CCC(=O)O)C(=O)NC(Cc3ccccc3)C(=O)NC(C)C(=O)NC(CC(C)CC)C(=O)NC(C(=O)NC(Cc3ccccc3)C(=O)N3CCCC3C(=O)N2)C(C)OC(=O)C(CO)NC(=O)C(C(O)COC)N(C)C(=O)C(C(C)C)NC(=O)C(CC(C)CC)NC1=O (stereo not drawn)
- GI50 [1]: < 0.014 µM

Structure (SMILES): O=C(/C=C/c1ccncc1)c1cc(Cl)ccc1O
- GI50 [1]: 18.1 µM
- TGI [1]: 33 µM

Structure (SMILES): O=C1OC(O)[C@@H]2[C@H]1[C@H]1CC[C@@H]2O1 (stereo partly drawn)
- GI50 [1]: 85.9 µM
- TGI [1]: > 100 µM

Source: PubChem BioAssay (NCI)
